Assay results as given in patent US20170114070A1, “INHIBITORS OF THE WNT SIGNALLING PATHWAYS” (Bayer Pharma Aktiengesellschaft, priority 2014, published 2017).
Where a name gives a salt, the structure may show the parent alone.

Experiments:
[1] = system: constitutive active Wnt pathway (HCT116 TOPFlash); experiment: Cellular reporter assay, HCT116 Super TopFlash (constitutive active Wnt pathway); format: cell-based; details: Homo sapiens, HCT-116; HCT116 stably transfected with Super TopFlash vector; 36 hours incubation; luciferase expression
Experimental: In order to discover and characterize small molecules which inhibit the constitutive active colorectal cancer cell (CRC) Wnt pathway, a cellular reporter assay was employed. The corresponding assay cell was generated by transfection of the colorectal cancer cell line HCT116 (ATCC, #CCL-247) with the Super TopFlash vector (Morin, Science 275, 1997, 1787-1790; Molenaar et al., Cell 86 (3), 1996, 391-399). The HCT116 cell line is cultivated at 37° C. and 5% CO2 in DMEM/F-12 (Life Technologies, #11320-074), supplemented with 2 mM glutamine, 20 mM HEPES, 1.4 mM pyruvate, 0.15% Na-bicarbonate and 10% foetal bovine serum (GIBCO, #10270), this cancer cell line is pathophysiological relevant since it carries a deletion of position S45 in the β-catenin gene, leading to constitutive active Wnt signaling. Stable transfectants were generated by cotransfection with pcDNA3 and selection of stable transfected cells with 1 mg/ml G418.
(§1) In a parallel approach, HCT116 cells were cotransfected with the FOP control vector and pcDNA3. The FOP vector is identical to the TOP construct, but it contains instead of functional TCF elements a randomized, non-functional sequence. For this transfection a stable transfected cell line was generated as well.
(§2) In preparation of the assay, the two cell lines were plated 24 hours before at 10000 cells per well of a 384 micro titre plate (MTP) in 30 μL growth medium. Selective inhibitory activity for small molecules on the mutated Wnt pathway was determined after parallel incubation of both (TOP and FOP) HCT116 reporter cell lines with a compound dilution series from 50 μM to 15 nM in steps of 3.16-fold dilutions in CAFTY buffer (130 mM NaCl, 5 mM KCl, 20 mM HEPES, 1 mM MgCl2, 5 mM NaHCO3, pH 7.4) containing 2 mM Ca^2+ and 0.01% BSA. The compounds were thereby serially prediluted in 100% DMSO and thereafter in addition 50 fold into the CAFTY compound dilution buffer (described above). From this dilution 10 μL were added to the cells in 30 μL growth medium and incubated for 36 hours at 37° C. and 5% CO2. Thereafter luciferase assay buffer (1:1 mixture of luciferase substrate buffer (20 mM Tricine, 2.67 mM MgSO4, 0.1 mM EDTA, 4 mM DTT, 270 μM Coenzyme A, 470 μM Luciferin, 530 μM ATP, ph adjusted to pH 7.8 with a sufficient volume of 5M NaOH) and Triton buffer (30 mL Triton X-100, 115 mL glycerol, 308 mg Dithiothreitol, 4.45 g Na2HPO4.2H2O, 3.03 g TRIS HCl, ad 1 l H20, pH 7.8) was added as equal volume to the compound solution on the cells to determine luciferase expression as a measure of Wnt signaling activity in a luminometer.

[2] = system: HCT116 FOPFlash (FOP control vector, non-functional TCF elements); experiment: Cellular control reporter assay, HCT116 FOP control vector; format: cell-based; details: Homo sapiens, HCT-116; HCT116 stably transfected with FOP control vector; 36 hours incubation; luciferase expression; dilution series from 50 μM
Experimental: as §1, §2

Structure (SMILES)	IC50 [1] [µM]	IC50 [2] [µM]
O=C(CN1CCOCC1)Nc1cc(C(=O)Nc2cnc(-c3cncnc3)cn2)ccc1OC(F)(F)F [Example 26, 3-[(morpholin-4-ylacetyl)amino]-N-[5-(pyrimidin-5-yl)pyrazin-2-yl]-4-(trifluoromethoxy)benzamide]	0.058	≥ 50
O=C(CN1CCOCC1)Nc1cc(C(=O)Nc2cnc(-c3cncnc3)cn2)ccc1OC1CC1 [Example 27, 4-(cyclopropyloxy)-3-[(morpholin-4-ylacetyl)amino]-N-[5-(pyrimidin-5-yl)pyrazin-2-yl]benzamide]	16.7	≥ 50
CN1CCN(CC(=O)Nc2cc(C(=O)Nc3cnc(-c4ccncc4)cn3)ccc2OC(F)(F)F)CC1 [Example 28, 3-{[(4-methylpiperazin-1-yl)acetyl]amino}-N-[5-(pyridin-4-yl)pyrazin-2-yl]-4-(trifluoromethoxy)benzamide]	0.064	≥ 50
Cc1cccc(F)c1-c1cnc(NC(=O)c2ccc(OC(F)(F)F)c(NC(=O)CN3CCN(C)CC3)c2)cn1 [Example 29, N-[5-(2-fluoro-6-methylphenyl)pyrazin-2-yl]-3-{[(4-methylpiperazin-1-yl)acetyl]amino}-4-(trifluoromethoxy)benzamide]	16.7	≥ 50
Cc1ccncc1-c1cnc(NC(=O)c2ccc(OC(F)(F)F)c(NC(=O)CN3CCN(C)CC3)c2)cn1 [Example 30, 3-{[(4-methylpiperazin-1-yl)acetyl]amino}-N-[5-(4-methylpyridin-3-yl)pyrazin-2-yl]-4-(trifluoromethoxy)benzamide]	0.082	≥ 50
O=C(CN1CCOCC1)Nc1cc(C(=O)Nc2cnc(-c3cc(F)cc(F)c3)cn2)ccc1OC(F)(F)F [Example 31, N-[5-(3,5-difluorophenyl)pyrazin-2-yl]-3-[(morpholin-4-ylacetyl)amino]-4-(trifluoromethoxy)benzamide]	0.0885	26.8
Cc1cccc(-c2cnc(NC(=O)c3ccc(OC(F)(F)F)c(NC(=O)CN4CCN(C)CC4)c3)cn2)c1 [Example 32, N-[5-(3-methylphenyl)pyrazin-2-yl]-3-{[(4-methylpiperazin-1-yl)acetyl]amino}-4-(trifluoromethoxy)benzamide]	16.7	40
O=C(CN1CCOCC1)Nc1cc(C(=O)Nc2cnc(-c3ccccc3Cl)cn2)ccc1OC(F)(F)F [Example 33, N-[5-(2-chlorophenyl)pyrazin-2-yl]-3-[(morpholin-4-ylacetyl)amino]-4-(trifluoromethoxy)benzamide]	0.115	31.5
O=C(CN1CCOCC1)Nc1cc(C(=O)Nc2ncc(-c3ccccc3)cn2)ccc1OC1CC1 [Example 34, 4-(cyclopropyloxy)-3-[(morpholin-4-ylacetyl)amino]-N-(5-phenylpyrimidin-2-yl)benzamide]	12.6	≥ 50
O=C(CN1CCOCC1)Nc1cc(C(=O)Nc2cnc(-c3cccc(Cl)c3)cn2)ccc1OC(F)(F)F [Example 35, N-[5-(3-chlorophenyl)pyrazin-2-yl]-3-[(morpholin-4-ylacetyl)amino]-4-(trifluoromethoxy)benzamide]	0.116	≥ 5.77
CN1CCN(CC(=O)Nc2cc(C(=O)Nc3cnc(-c4cccnc4F)cn3)ccc2OC(F)(F)F)CC1 [Example 36, N-[5-(2-fluoropyridin-3-yl)pyrazin-2-yl]-3-{[(4-methylpiperazin-1-yl)acetyl]amino}-4-(trifluoromethoxy)benzamide hydrochloride]	0.12	≥ 50
CN1CCN(CC(=O)Nc2cc(C(=O)Nc3cnc(-c4cnc(N)nc4)cn3)ccc2OC(F)(F)F)CC1 [Example 37, N-[5-(2-aminopyrimidin-5-yl)pyrazin-2-yl]-3-{[(4-methylpiperazin-1-yl)acetyl]amino}-4-(trifluoromethoxy)benzamide]	0.223	≥ 50
O=C(CN1CCOCC1)Nc1cc(C(=O)Nc2cnc(-c3ccccc3)cn2)ccc1OC1CC1 [Example 38, 4-(cyclopropyloxy)-3-[(morpholin-4-ylacetyl)amino]-N-(5-phenylpyrazin-2-yl)benzamide]	0.123	≥ 50
Cc1ccccc1-c1cnc(NC(=O)c2ccc(OC(F)(F)F)c(NC(=O)CN3CCOCC3)c2)cn1 [Example 39, N-[5-(2-methylphenyl)pyrazin-2-yl]-3-[(morpholin-4-ylacetyl)amino]-4-(trifluoromethoxy)benzamide]	0.225	24.9
CN1CCN(CC(=O)Nc2cc(C(=O)Nc3cnc(-c4ccccn4)cn3)ccc2OC(F)(F)F)CC1 [Example 40, 3-{[(4-methylpiperazin-1-yl)acetyl]amino}-N-[5-(pyridin-2-yl)pyrazin-2-yl]-4-(trifluoromethoxy)benzamide]	0.153	≥ 50
CN1CCN(CC(=O)Nc2cc(C(=O)Nc3cnc(-c4ccccc4F)cn3)ccc2OC(F)(F)F)CC1 [Example 41, N-[5-(2-fluorophenyl)pyrazin-2-yl]-3-{[(4-methylpiperazin-1-yl)acetyl]amino}-4-(trifluoromethoxy)benzamide]	0.225	≥ 50
Cc1ccccc1-c1cnc(NC(=O)c2ccc(OC(F)(F)F)c(NC(=O)CN3CCN(C)CC3)c2)cn1 [Example 42, N-[5-(2-methylphenyl)pyrazin-2-yl]-3-{[(4-methylpiperazin-1-yl)acetyl]amino}-4-(trifluoromethoxy)benzamide]	0.12	≥ 50

Other lines, results leading:

IC50 [1] [µM]	IC50 [2] [µM]	Structure (SMILES)
0.155	27.6	CN1CCN(CC(=O)Nc2cc(C(=O)Nc3cnc(-c4cc(F)cc(F)c4)cn3)ccc2OC(F)(F)F)CC1 [Example 43, N-[5-(3,5-difluorophenyl)pyrazin-2-yl]-3-{[(4-methylpiperazin-1-yl)acetyl]amino}-4-(trifluoromethoxy)benzamide]
16.8	≥ 50	CN1CCN(CC(=O)Nc2cc(C(=O)Nc3cnc(-c4ccccc4Cl)cn3)ccc2OC(F)(F)F)CC1 [Example 44, N-[5-(2-chlorophenyl)pyrazin-2-yl]-3-{[(4-methylpiperazin-1-yl)acetyl]amino}-4-(trifluoromethoxy)benzamide]
16.7	≥ 50	Cc1ccncc1-c1cnc(NC(=O)c2ccc(OC(F)(F)F)c(NC(=O)CN3CCOCC3)c2)cn1 [Example 45, N-[5-(4-methylpyridin-3-yl)pyrazin-2-yl]-3-[(morpholin-4-ylacetyl)amino]-4-(trifluoromethoxy)benzamide]
16.8	≥ 50	Nc1ccc(-c2cnc(NC(=O)c3ccc(OC(F)(F)F)c(NC(=O)CN4CCOCC4)c3)cn2)cn1 [Example 46, N-[5-(6-aminopyridin-3-yl)pyrazin-2-yl]-3-[(morpholin-4-ylacetyl)amino]-4-(trifluoromethoxy)benzamide]
0.24	4.1	Cc1cccc(-c2cnc(NC(=O)c3ccc(OC(F)(F)F)c(NC(=O)CN4CCOCC4)c3)cn2)c1 [Example 47, N-[5-(3-methylphenyl)pyrazin-2-yl]-3-[(morpholin-4-ylacetyl)amino]-4-(trifluoromethoxy)benzamide]
0.26	7.73	CN1CCN(CC(=O)Nc2cc(C(=O)Nc3cnc(-c4cccc(Cl)c4)cn3)ccc2OC(F)(F)F)CC1 [Example 48, N-[5-(3-chlorophenyl)pyrazin-2-yl]-3-{[(4-methylpiperazin-1-yl)acetyl]amino}-4-(trifluoromethoxy)benzamide]
0.26	≥ 50	CN1CCN(CC(=O)Nc2cc(C(=O)Nc3cnc(-c4cncnc4)cn3)ccc2OC(F)(F)F)CC1 [Example 49]
16.9	≥ 50	O=C(CN1CCOCC1)Nc1cc(C(=O)Nc2cnc(-c3ccccn3)cn2)ccc1OC1CC1 [Example 50, 4-(cyclopropyloxy)-3-[(morpholin-4-ylacetyl)amino]-N-[5-(pyridin-2-yl)pyrazin-2-yl]benzamide]
